Experimental data taken from patent publication US10358467B2, “Therapeutic targets for cancer progression” (The Regents of the University of California, priority 2015, dated 2019).

B1: His-DAPLE-CT FA: His-DAPLE-CT with F1675A mutation, Gαi3 binding-deficient mutant (protein)
chain: GTAPPYVGVRPCSASPSSEMVTLEEALEESNRSSPTHDTPSCRDDLLSDYFRKASDPPAIGGQPGPPAKKEGAKMPTNFVAPTVKMAAPTSEGRPLKPGQYVKPNFRLTEAEAPPSVAPRQAQPPQSLSLGRPRQAPVPPASHAPASRSASLSRAFSLASADLLRASGPEACKQESPQKLGAPEALGGRETGSHTLQSPAPPSSHSLARERTPLVGKAGSSCQGPGPRSRPLDTRRFSLAPPKEERLAPLHQSATAPAIATAGAGAAAAGSGSNSQLLHFSPAAAPAARTKPKAPPRSGEVATITPVRAGLSLSEGDGVPGQGCSEGLPAKSPGRSPDLAPHLGRALEDCSRGSVSKSSPASPEPGGDPQTVWYEYGCV
modifications: left off: small tags and cut ends

What was measured:
[1] = test system: DLD1 cells; experiment: Anchorage-dependent tumor growth assay; assay type: cell-based, human; conditions: for inhibition of anchorage-dependent tumor growth: DLD1 cells, plastic plates
Protocol: Anchorage-dependent growth was monitored on solid (plastic) surface as described previously (Franken et al, 2006). Briefly, anchorage-dependent growth was monitored on solid (plastic) surface. Approximately ˜1000 DLD1 cells stably expressing various DAPLE constructs were plated in 6-well plates and incubated in 5% CO2 at 37° C. for ˜2 weeks in 0.2% FBS growth media. Colonies were then stained with 0.005% crystal violet for 1 h. The remaining DLD1 cells were lysed and analyzed by immunoblotting to confirm DAPLE construct expression. Each experiment was analyzed in triplicate.

[2] = test system: Ras-transformed NIH3T3 cells; experiment: Transformation assay, colony formation in soft agar; assay type: cell-based; conditions: NIH3T3 co-expressing HA-KRas G12V
Protocol: Neoplastic transformationin Ras-transformed NIH3T3 fibroblasts was analyzed using standard assays of colony formation in soft agar as described previously (Clark et al, 1995). Low passage NIH3T3 cells (˜5000) stably co-transfected with appropriate myc-DAPLE construct (2 μg cDNA) and HA-Ras G12V (1 μg cDNA) were analyzed for their ability to form tumor foci in soft agar plates. Plates were incubated in 5% CO2 at 37° C. for ˜2 weeks in growth media supplemented with 2% FBS. They were finally incubated with 0.1% (wt/vol)dimethylthiazol-2-yl)2 2,5-diphenyl tetrazolium bromide (MTT; Sigma) in PBS for 1 h to visualize colonies. The remaining NIH3T3 cells not used for this assay were lysed and analyzed for myc-DAPLE and Ha-Ras G12V expression by immunoblotting.

[3] = test system: DLD1 cells; experiment: Anchorage-independent tumor growth assay; assay type: cell-based, human; conditions: soft agar
Protocol: Anchorage-independent growth of DLD1 cells was analyzed in agar as described previously (Wallert M A, 2007). Briefly, petri plates (60 mm) were pre-layered with 3 ml 1% Bacto agar (Life Technologies) in DMEM containing 10% FBS. Approximately ˜5000 DLD1 cells stably expressing various DAPLE constructs were then plated on top in 3 ml of 0.3% agar-DMEM with 10% FBS. All assays were carried out using three replicate plates at a seeding density of ˜5000 cells/plate. Following overnight incubation in 5% CO2 incubator, 1 ml DMEM supplemented with 2% FBS was added to maintain hydration. After 2 wks of growth, colonies were stained with 0.005% crystal violet/methanol for 1 h, and subsequently photographed by light microscopy. The number of colonies in ˜15-20 randomly-selected fields were counted under 10× magnification. The remaining DLD1 cells were lysed and analyzed by immunoblotting to confirm DAPLE construct expression. Each experiment was analyzed in triplicate.

[4] = test system: β-Catenin/TCF/LEF pathway in DLD1 7TGP cells; experiment: β-Catenin reporter assay (7TGP); assay type: cell-based, human; conditions: stable expression, starved and stimulated with Wnt5a, versus vector control
Protocol: These assays were carried out using the well-established reporter 7×Tcf-eGFP (7TGP) (Fuerer & Nusse, 2010). Stable cells lines expressing this reporter were generated by lentiviral transduction and subsequent selection using standard procedures. Lentiviral infection and selection were performed according to standard procedures. Briefly, 10 cm plates DLD1 cells at 70% confluency were incubated with media containing 8 μg/mL polybrene and 10 μl of lentivirus for 6 h. After 24 hours post infection, selection of puromycin-resistant clones was initiated by adding the antibiotic at 2 μg/ml final concentration. The resultant DLD1-7TGP stable cells were subsequently transfected with various myc-DAPLE constructs and selected for G418 resistance as described earlier in methods. The DLD1-7TGP cells stably expressing myc-DAPLE were incubated overnight at 0.2% FBS, analyzed by fluorescence microscopy, and photographed prior to lysis. Whole cell lysates samples were then boiled in Laemmli's sample buffer and GFP protein expression was monitored by immunoblotting.

[5] = test system: NIH3T3 cells; experiment: 3D spheroid matrigel invasion assay; assay type: cell-based; conditions: in response to Wnt5a
Protocol: NIH3T3 cell invasion assay in 3D culture was performed according to the manufacturer's protocol (Trevigen, Cultrex 3D Spheroid BME Cell Invasion Assay, catalog #3500-096-K). Briefly, non-invasive NIH3T3 cells (˜3000 cells) transfected with empty vector (control) or myc-DAPLEconstructs were incubated first in the Spheroid Formation extracellular matrix (ECM) containing 0.2% FBS for 3 days. Invasion matrix was then added and layered on top with media containing FBS. […] Photographs were analyzed and pseudocolored by Image J to reflect cell density.

[6] = target: T1, GST-FZD7R-CT (Homo sapiens, UniProt O75084); experiment: GST-FZD7-CT pulldown of His-Gαi3; assay type: binding; conditions: His-Gαi3 preloaded with GDP, in the presence of DAPLE-CT
T1 construct: the GST-tagged cytoplasmic tail of FZD7R; made in house; host or cells: bacteria (E. coli BL21 (DE3)); plasmid a gift of R. Yao
Protocol: GST-FZD7-CT and GST-PBD constructs were immobilized on glutathione-Sepharose beads directly from bacterial lysates by overnight incubation at 4° C. with constant tumbling. Next morning, GST-FZD7-CT immobilized on glutathione beads were washed and subsequently incubated with His-tagged DAPLE-CT or Gαi3 proteins at 4° C. with constant tumbling. Washes and immunoblotting were performed as previously.

[7] = target: T2, His-Gαi3 (Rattus norvegicus, UniProt P08753); experiment: Steady-state GTPase assay; assay type: biochemical; conditions: parallel reactions, WT replaced by F1675A
T2 construct: His; made in house; host or cells: E. coli BL21 (DE3)
Protocol: Under the experimental conditions of steady-state GTPase assays, GTP hydrolysis occurs as a two-step reaction, i.e., 1) GDP is released from the G protein and exchanged for GTP, and 2) the GTP loaded is hydrolyzed. Nucleotide exchange is the rate limiting step in this process because it is ˜50-100 times slower than GTP hydrolysis by Gαi subunits (Mukhopadhyay & Ross, 2002). Thus, the steady-state GTPase activity reflects the rate of nucleotide exchange, and was performed as described previously (Garcia-Marcos et al, 2010; Garcia-Marcos et al, 2012; Garcia-Marcos et al, 2011b). Briefly, His-Gαi3 (100 nM) was preincubated with different concentrations of His-DAPLE-CT (aa 1650-2028) for 15 min at 30° C. in assay buffer [20 mM Na-HEPES, pH 8, 100 mM NaCl, 1 mM EDTA, 2 mM MgCl2, 1 mM DTT, 0.05% (w:v) C12E10]. GTPase reactions were initiated at 30° C. by adding an equal volume of assay buffer containing 1 μM [γ-^32P]GTP (˜50 c.p.m/fmol). […] Samples were then centrifuged for 10 min at 10,000×g, and 500 μl of the resultant supernatant were scintillation counted to quantify released [^32P]Pi. For the time course experiments, data was expressed as raw c.p.m. For the dose-dependence curve experiments, the background [^32P]Pi detected at 15 min in the absence of G protein was subtracted from each reaction and data expressed as percentage of the Pi produced by His-Gαi3 in the absence of His-DAPLE-CT.

[8] = target: T2, His-Gαi3; experiment: GTPγS binding assay; assay type: biochemical; conditions: 0-2 μM, 15 min
Protocol: GTPγS binding was measured using a filter binding method as described previously (Garcia-Marcos et al, 2010; Garcia-Marcos et al, 2011b). His-Gαi3 (100 nM) was preincubated with different concentrations of His-DAPLE-CT (aa 1650-2028) for 15 min at 30° C. in assay buffer [20 mM Na-HEPES, pH 8, 100 mM NaCl, 1 mM EDTA, 25 mM MgCl2, 1 mM DTT, 0.05% (w:v) C12E10]. Reactions were initiated at 30° C. by adding an equal volume of assay buffer containing 1 μM [^35S] GTPγS (˜50 c.p.m/fmol). Duplicate aliquots (25 μl) were removed at different time points, and binding of radioactive nucleotide was stopped by addition of 3 ml, ice-cold wash buffer (20 mM Tris-HCl, pH 8.0, 100 mM NaCl, 25 mM MgCl2). The quenched reactions were rapidly passed through BA-85 nitrocellulose filters (GE Healthcare) and washed with 4 ml wash buffer. Filters were dried and subjected to liquid scintillation counting. To determine the specific nucleotide binding, the background [^35S]GTPγS detected in the absence of G protein was subtracted from each reaction and data expressed as percentage of the [^35S] GTPγS bound by His-Gαi3 in the absence of His-DAPLE-CT.

[9] = target: T3, GST-Gαi3·Gβγ preformed complexes (Rattus norvegicus, UniProt P08753); experiment: Gβγ displacement assay; assay type: binding; conditions: 0.05-1 μM WT or 1 μM F1675A
T3 construct: made in house; host or cells: E. coli BL21 (DE3) for GST-Gαi3; Gβγ endogenous from HEK293T lysate
Protocol: This assay was performed as described previously (Garcia-Marcos et al, 2009). Briefly, GST alone or GST-Gαi3 proteins immobilized on glutathione-agarose beads were incubated overnight at 4° C. with HEK293T cell lysates in binding buffer [50 mM Tris-HCl, pH 7.4, 100 mM NaCl, 0.4% (v:v) NP-40, 10 mM MgCl2, 5 mM EDTA, 2 mM DTT, protease inhibitor cocktail supplemented with 30 μM GDP]. Unbound Gβγ-subunits were washed twice with the same buffer and proteins bound to the glutathione-agarose beads divided into equal aliquots containing ˜5 μg (˜0.4 μM) GST-fusion proteins. Aliquots were incubated with increasing concentrations (0.05-1 μM) of purified His-DAPLE-CT (1650-2028) wild-type or 1 μM His-DAPLE-CT F1675A in binding buffer supplemented with GDP (˜200 μl) for 5 h at 4° C. Glutathione-agarose beads were washed and bound proteins eluted by boiling in Laemmli sample buffer and separated by SDS-PAGE.

| increase of Gαi3 binding to GST-FZD7R-CT [6] | displacement of Gβγ from pre-assembled complex with GST-Gαi3 [9] | Molecule | inhibition of anchorage-dependent tumor growth [1] | reduction of number of colonies in soft-agar [2] | inhibition of anchorage-independent tumor growth [3] | adherent colonies per well (tumor growth) ([1]; DLD1 cells stably expressing constructs, 2-3 weeks) | eGFP signal (Wnt transcriptional activity) [4] | invasion of matrigel by spheroids [5] | acceleration of steady-state GTPase activity diminished versus His-DAPLE-CT WT [7] | initial rate of nucleotide (GTPγS) binding by His-Gαi3 [8] |
| --- | --- | --- | --- | --- | --- | --- | --- | --- | --- | --- |
|  |  | DAPLE-FA: full length myc-DAPLE with F1675A mutation in the GBA motif, expressed in cells | failed to inhibit | failed to inhibit | enhanced oncogenicity |  |  |  |  |  |
|  |  | DAPLE-WT: myc-tagged full length human DAPLE (SEQ ID NO: 2) expressed in cells from pcDNA 3.1 | ~90% | ~65% | ~50% | can inhibit tumor growth | showed inhibition of eGFP | increase of invasion tracks |  |  |
| not | not | B1 |  |  |  |  |  |  | > 90% | not significantly affected |
